Measured values reported in US20240343694A1, “PYRIMIDINE DERIVATIVE, METHOD FOR PREPARING SAME, AND PHARMACEUTICAL COMPOSITION FOR PREVENTING OR TREATING CANCER COMPRISING SAME AS ACTIVE INGREDIENT” (KOREA RESERARCH INSTITUTE OF CHEMICAL TECHNOLOGY, priority 2021, published 2024).

Tests used:
Ba/F3 HER2 G776delinsVC = test: Growth inhibition of Ba/F3 HER2 mutant cells (CellTiter-Glo); type: cell-based; details: Mus musculus, BaF3, 72 hours
How it was run: (§1)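 Ba/F3 cells carrying HER2 A775_G776insYVMA or G776delinsVC were seeded at 1,000 cells/well and dosed 24 h later at 0.01-10 μM (8 concentrations including 0). After 72 h, viability was read as cellular ATP by CellTiter-Glo luminescence, and IC50 values were calculated from the 8-point curves.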

[1] = tested on: Ba/F3 HER2 A775_G776insYVMA; test: as above; type: cell-based; details: Mus musculus, BaF3, 72 hours
How it was run: as §1

HER2 A775_G776insYVMA = HER2 A775_G776insYVMA (Homo sapiens (Human), UniProt P04626, INS775YVMA); test: HTRF inhibitory activity against HER2 mutant enzyme; type: biochemical; details: recombinant enzyme, 37° C. for 2 hours
How it was run: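 Recombinant HER2 A775_G776insYVMA preincubated with compound, then […] and biotinylated peptide ([…]) added; 2 h at 37 °C in Tris-HCl pH 7.5 buffer with MgCl2, DTT. HTRF detection (Eu anti-phosphotyrosine/streptavidin-XL665); IC50 from 7 concentrations.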

EGFR del19 = EGFR del19 (Homo sapiens (Human), UniProt P00533, DEL746-750); test: HTRF inhibitory activity against EGFR mutant enzyme (EGFR del19); type: biochemical; details: recombinant enzyme, 37° C. for 2 hours
How it was run: (§2)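 IC50 was derived from 7 concentrations by HTRF: Eu-anti-pTyr and streptavidin-XL665 for 1 h at room temperature, with the 615/665 nm ratio read. The kinase reaction ran 2 h at 37 °C in Tris pH 7.5 buffer with ATP (stated 50 mM) and biotinylated peptide (0.5 mM). Enzyme was preincubated with compound before substrate was added.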

[2] = tested on: Ba/F3 EGFR V769_D770insASV; test: Growth inhibition of Ba/F3 EGFR mutant cells (CellTiter-Glo); type: cell-based; details: 72 hours
How it was run: (§3)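 Ba/F3 cells expressing either EGFR insertion mutant were seeded at 1,000 cells/well and dosed 24 h later at eight concentrations from 0 to 10 μM. After 72 h, viability was read by CellTiter-Glo ATP signal. IC50 (μM) was fitted from the eight-point curves.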

[3] = tested on: Ba/F3 EGFR D770_N771insSVD; test: as above; type: cell-based; details: Ba/F3 EGFR-D770-N771ins_SVD, 72 hours
How it was run: as §3

EGFR A763_Y764insFHEA = EGFR A763_Y764insFHEA (Homo sapiens (Human), UniProt P00533, INS763FHEA); test: HTRF inhibitory activity against EGFR mutant enzyme (EGFR A763_Y764insFHEA); type: biochemical; details: recombinant enzyme, 37° C. for 2 hours
How it was run: as §2

Sequence of EGFR A763_Y764insFHEA (P00533 other isoform, or with tags, fused parts or gaps del 1-694/ins FHEA behind 763 limits assumed): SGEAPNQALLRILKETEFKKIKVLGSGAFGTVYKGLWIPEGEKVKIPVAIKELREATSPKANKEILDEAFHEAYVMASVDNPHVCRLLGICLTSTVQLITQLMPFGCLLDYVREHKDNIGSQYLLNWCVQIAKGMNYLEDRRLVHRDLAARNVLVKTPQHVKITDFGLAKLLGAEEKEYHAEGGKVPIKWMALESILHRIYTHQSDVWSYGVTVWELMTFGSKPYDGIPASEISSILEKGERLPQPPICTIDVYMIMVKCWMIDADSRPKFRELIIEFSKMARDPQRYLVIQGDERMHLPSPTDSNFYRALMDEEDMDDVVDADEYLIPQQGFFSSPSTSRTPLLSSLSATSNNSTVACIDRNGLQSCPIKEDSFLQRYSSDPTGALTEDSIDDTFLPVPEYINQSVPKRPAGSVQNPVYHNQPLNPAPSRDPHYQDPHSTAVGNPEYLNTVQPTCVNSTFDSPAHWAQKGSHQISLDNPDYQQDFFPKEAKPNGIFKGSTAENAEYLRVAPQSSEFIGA
Sequence of HER2 A775_G776insYVMA (P04626 other isoform, or with tags, fused parts or gaps del 1-675/ins YVMA behind 775 limits assumed): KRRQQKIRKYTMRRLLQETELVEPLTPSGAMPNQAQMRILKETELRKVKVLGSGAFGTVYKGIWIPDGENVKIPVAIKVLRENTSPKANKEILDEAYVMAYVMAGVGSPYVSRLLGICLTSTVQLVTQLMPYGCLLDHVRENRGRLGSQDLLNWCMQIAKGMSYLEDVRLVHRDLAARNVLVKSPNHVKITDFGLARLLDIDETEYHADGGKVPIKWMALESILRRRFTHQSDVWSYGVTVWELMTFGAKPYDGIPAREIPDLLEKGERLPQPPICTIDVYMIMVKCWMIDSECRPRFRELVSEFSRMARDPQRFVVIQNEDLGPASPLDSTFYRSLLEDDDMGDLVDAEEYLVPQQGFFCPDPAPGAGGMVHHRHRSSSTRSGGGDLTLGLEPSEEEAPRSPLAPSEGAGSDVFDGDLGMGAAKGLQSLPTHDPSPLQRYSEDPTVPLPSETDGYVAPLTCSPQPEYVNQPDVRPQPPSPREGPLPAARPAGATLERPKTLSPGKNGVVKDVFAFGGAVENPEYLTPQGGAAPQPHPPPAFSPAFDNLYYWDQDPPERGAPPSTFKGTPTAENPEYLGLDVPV
Sequence of EGFR del19 (P00533 other isoform, or with tags, fused parts or gaps del 1-668/del 746-750 limits assumed): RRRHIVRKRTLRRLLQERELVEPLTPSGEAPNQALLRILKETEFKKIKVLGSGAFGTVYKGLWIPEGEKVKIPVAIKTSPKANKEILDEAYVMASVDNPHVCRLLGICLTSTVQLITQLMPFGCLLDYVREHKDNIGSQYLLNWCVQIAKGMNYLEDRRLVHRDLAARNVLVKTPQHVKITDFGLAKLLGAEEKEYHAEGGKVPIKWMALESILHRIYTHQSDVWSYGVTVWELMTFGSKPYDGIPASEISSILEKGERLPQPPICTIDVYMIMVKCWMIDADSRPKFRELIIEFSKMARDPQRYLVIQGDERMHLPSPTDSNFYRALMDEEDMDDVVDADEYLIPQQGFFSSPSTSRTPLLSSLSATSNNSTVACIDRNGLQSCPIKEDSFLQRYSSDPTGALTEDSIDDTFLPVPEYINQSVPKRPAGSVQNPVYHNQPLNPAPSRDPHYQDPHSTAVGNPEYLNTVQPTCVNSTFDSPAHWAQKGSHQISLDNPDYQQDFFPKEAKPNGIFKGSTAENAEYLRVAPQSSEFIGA

SMILES | IC50 (Ba/F3 HER2 G776delinsVC) | IC50 [1] | IC50 (HER2 A775_G776insYVMA) | IC50 (EGFR del19) | IC50 [2] | IC50 [3] | IC50 (EGFR A763_Y764insFHEA)
C=CC(=O)Nc1cc(Nc2ncc(Cl)c(Nc3cccc4c3N(S(C)(=O)=O)CC4)n2)c(OC)cc1N1CCC(N(C)C)CC1 [Example 58, N-(5-((5-chloro-4-((1-(methylsulfonyl)indolin-7-yl)amino)pyrimidin-2-yl)amino)-2-(4-(dimethylamino)piperidin-1-yl)-4-methoxyphenyl)acrylamide] | < 10 nM | 50 to 100 nM | 90 nM | < 1 nM | 50 to 100 nM | 50 to 100 nM | 10 nM
C=CC(=O)Nc1cc(Nc2ncc(Cl)c(Nc3cccc4c3N(S(=O)(=O)CC)CC4)n2)c(OC)cc1N(C)CCN(C)C [Example 56, N-(5-((5-chloro-4-((1-(ethylsulfonyl)indolin-7-yl)amino)pyrimidin-2-yl)amino)-2-((2-(dimethylamino)ethyl)(methyl)amino)-4-methoxyphenyl)acrylamide] | < 10 nM | < 10 nM | < 1 nM | < 1 nM | < 10 nM | < 10 nM | < 1 nM
C=CC(=O)Nc1cc(Nc2ncc(Cl)c(Nc3ccccc3N(CC)S(=O)(=O)CC)n2)c(OC)cc1N(C)CCN(C)C [Example 33, N-(5-((5-chloro-4-((2-(N-ethylethylsulfonamido)phenyl)amino)pyrimidin-2-yl)amino)-2-((2-(dimethylamino)ethyl)(methyl)amino)-4-methoxyphenyl)acrylamide] | < 10 nM | 30 to 50 nM | 7 nM | < 1 nM | < 10 nM | 30 to 50 nM | < 1 nM
C=CC(=O)Nc1cc(Nc2ncc(Cl)c(Nc3cccc4c3N(S(C)(=O)=O)CCC4)n2)c(OC)cc1N(C)CCN(C)C [Example 47, N-(5-((5-chloro-4-((1-(methylsulfonyl)-1,2,3,4-tetrahydroquinolin-8-yl)amino)pyrimidin-2-yl)amino)-2-((2-(dimethylamino)ethyl)(methyl)amino)-4-methoxyphenyl)acrylamide] | < 10 nM | < 10 nM | 6 nM | < 1 nM | < 10 nM | < 10 nM | < 1 nM
C=CC(=O)Nc1cc(Nc2ncc(Cl)c(Nc3cccc4c3N(S(C)(=O)=O)CC4)n2)c(OC)cc1N(C)CCNC [Example 57, N-(5-((5-chloro-4-((1-(methylsulfonyl)indolin-7-yl)amino)pyrimidin-2-yl)amino)-4-methoxy-2-(methyl(2-(methylamino)ethyl)amino)phenyl)acrylamide] | 50 to 100 nM | 50 to 100 nM | < 1 nM | < 1 nM | 50 to 100 nM | 50 to 100 nM | < 1 nM
C=CC(=O)Nc1cc(Nc2ncc(Cl)c(Nc3cccc(CC)c3N(C)S(C)(=O)=O)n2)c(OC)cc1N(C)CCN(C)C [Example 41, N-(5-((5-chloro-4-((3-ethyl-2-(N-methylmethylsulfonamido)phenyl)amino)pyrimidin-2-yl)amino)-2-((2-(dimethylamino)ethyl)(methyl)amino)-4-methoxyphenyl)acrylamide] | < 10 nM | 50 to 100 nM | 9 nM | < 1 nM | 30 to 50 nM | 30 to 50 nM | 1 nM
C=CC(=O)Nc1cc(Nc2ncc(Cl)c(Nc3cccc(C)c3N(CC)S(C)(=O)=O)n2)c(OC)cc1N(C)CCN(C)C [Example 39, N-(5-((5-chloro-4-((2-(N-ethylmethylsulfonamido)-3-methylphenyl)amino)pyrimidin-2-yl)amino)-2-((2-(dimethylamino)ethyl)(methyl)amino)-4-methoxyphenyl)acrylamide] | < 10 nM | 30 to 50 nM | 8 nM | < 1 nM | < 10 nM | 30 to 50 nM | < 1 nM

Now from value to compound:

IC50 (Ba/F3 HER2 G776delinsVC) | IC50 [1] | IC50 (HER2 A775_G776insYVMA) | IC50 (EGFR del19) | IC50 [2] | IC50 [3] | IC50 (EGFR A763_Y764insFHEA) | SMILES
< 10 nM | 30 to 50 nM | 8 nM | < 1 nM | 30 to 50 nM | 30 to 50 nM | 1 nM | C=CC(=O)Nc1cc(Nc2ncc(Cl)c(Nc3ccccc3N(C(C)C)S(C)(=O)=O)n2)c(OC)cc1N(C)CCN(C)C [Example 32, N-(5-((5-chloro-4-((2-(N-isopropylmethylsulfonamido)phenyl)amino)pyrimidin-2-yl)amino)-2-((2-(dimethylamino)ethyl)(methyl)amino)-4-methoxyphenyl)acrylamide]
30 to 50 nM | 50 to 100 nM | 26 nM | < 1 nM | 50 to 100 nM | 50 to 100 nM | 2 nM | C=CC(=O)Nc1cc(Nc2ncc(Cl)c(Nc3cccc(C(C)C)c3N(C)S(C)(=O)=O)n2)c(OC)cc1N(C)CCN(C)C [Example 37, N-(5-((5-chloro-4-((3-isopropyl-2-(N-methylmethylsulfonamido)phenyl)amino)pyrimidin-2-yl)amino)-2-((2-(dimethylamino)ethyl)(methyl)amino)-4-methoxyphenyl)acrylamide]
> 100 nM | > 100 nM | 6 nM | < 1 nM | > 100 nM | > 100 nM | < 1 nM | C=CC(=O)Nc1cc(Nc2ncc(Cl)c(Nc3ccccc3NS(C)(=O)=O)n2)c(OC)cc1N(C)CCNC [Example 25, N-(5-((5-chloro-4-((2-(methylsulfonamido)phenyl)amino)pyrimidin-2-yl)amino)-4-methoxy-2-(methyl(2-(methylamino)ethyl)amino)phenyl)acrylamide]
< 10 nM | 30 to 50 nM | 14 nM | < 1 nM | 10 to 30 nM | 10 to 30 nM | 2 nM | C=CC(=O)Nc1cc(Nc2ncc(Cl)c(Nc3ccc(C)cc3NC(C)=O)n2)c(OC)cc1N(C)CCN(C)C [Example 88, N-(5-((4-((2-acetamido-4-methylphenyl)amino)-5-chloropyrimidin-2-yl)amino)-2-((2-(dimethylamino)ethyl)(methyl)amino)-4-methoxyphenyl)acrylamide]
< 10 nM | > 100 nM | 37 nM | 1 nM | 30 to 50 nM | 30 to 50 nM | 7 nM | C=CC(=O)Nc1cc(Nc2ncc(Cl)c(Nc3ccccc3NC(C)=O)n2)c(OC)cc1N(C)CCN(C)C [Example 90, N-(5-((4-((2-acetamidophenyl)amino)-5-chloropyrimidin-2-yl)amino)-2-((2-(dimethylamino)ethyl)(methyl)amino)-4-methoxyphenyl)acrylamide]
< 10 nM | < 10 nM | 8 nM | < 1 nM | < 10 nM | < 10 nM | < 1 nM | C=CC(=O)Nc1cc(Nc2ncc(Cl)c(Nc3ccc(C)cc3N(C)S(C)(=O)=O)n2)c(OC)cc1N(C)CCN(C)C [Example 45, N-(5-((5-chloro-4-((4-methyl-2-(N-methylmethylsulfonamido)phenyl)amino)pyrimidin-2-yl)amino)-2-((2-(dimethylamino)ethyl)(methyl)amino)-4-methoxyphenyl)acrylamide]
< 10 nM | > 100 nM | 258 nM | 15 nM | 10 to 30 nM | 10 to 30 nM | 280 nM | CC#CC(=O)Nc1cc(Nc2ncc(Cl)c(Nc3cccc4c3N(C(C)=O)CC4)n2)c(OC)cc1N(C)CCN(C)C [Example 97, N-(5-((4-((1-acetylindolin-7-yl)amino)-5-chloropyrimidin-2-yl)amino)-2-((2-(dimethylamino)ethyl)(methyl)amino)-4-methoxyphenyl) but-2-inamide]
< 10 nM | 10 to 30 nM | 11 nM | 1 nM | 10 to 30 nM | 10 to 30 nM | 2 nM | C=CC(=O)Nc1cc(Nc2ncc(Cl)c(Nc3cccc4c3N(C(=O)CC)CC4)n2)c(OC)cc1N(C)CCN(C)C [Example 93, N-(5-((5-chloro-4-((1-propionylindolin-7-yl)amino)pyrimidin-2-yl)amino)-2-((2-(dimethylamino)ethyl)(methyl)amino)-4-methoxyphenyl)acrylamide]
< 10 nM | 30 to 50 nM | 4 nM | < 1 nM | < 10 nM | 30 to 50 nM | < 1 nM | C=CC(=O)Nc1cc(Nc2ncc(Cl)c(Nc3ccccc3N(C)S(=O)(=O)CC)n2)c(OC)cc1N(C)CCN(C)C [Example 30, N-(5-((5-chloro-4-((2-(N-methylethylsulfonamido)phenyl)amino)pyrimidin-2-yl)amino)-2-((2-(dimethylamino)ethyl)(methyl)amino)-4-methoxyphenyl)acrylamide]
